Measurements published in paper PMC6721120, “Inhibitory Effects of Ginsenoside Ro on the Growth of B16F10 Melanoma via Its Metabolites” (Molecules, 2019).
≈ marks a conversion by molar mass, not a printed value. Like-named read-outs stand apart in the source and are kept apart here.

How the values were obtained:
[1] = Protocol: (§1) An anti-tumour assay was conducted in a mouse xenograft model. B16F10 cells were cultured in DMEM containing 10% FBS. After the collection of cells, the cells were re-suspended in normal saline to the appropriate concentrations. Next, 0.1 mL of the B16F10 cell suspension (1 × 10^6 cells) was subcutaneously injected via the right axillary region of the C57BL/6J mice. The tumour-bearing mice were randomly divided into three groups (n = 6/group): model control group, positive control group, and Ro (25 mg/kg) administration group. […] Normal and model mice were administered normal saline. The mice in the positive control group received CTX (20 mg/kg). The successive intraperitoneal injection of drugs into the mice from the day after tumour inoculation and the body weights were monitored every 2 days. After 15 days, all mice were sacrificed, and tumours were taken out and measured as previously described. The thymus and spleen were also removed and weighed to calculate the thymus and spleen indices. The tumour inhibition rate was calculated. The blood samples were collected from the retrobulbar vessels and added into tubes containing heparin. Subsequently, plasma samples were prepared by centrifugation for 10 min at 3800 rpm and stored at −80 °C for HPLC-MS analysis.
B16F10 melanoma tumour = assay: Tumour xenograft experiment in B16F10 tumour-bearing mice; format: in vivo, C57BL/6J mice; conditions: 15 days; for mean tumour weight: model group 1.50 g; for tumour growth (tumour volume): R1 25, IVa 25, E 5, CTX 20 mg/kg intraperitoneal, vs model group, p < 0.05
Protocol: as §1
A xenograft experiment was performed using the same method as described in Section 2.2. Briefly, after the mice were inoculated with tumour cells, they were randomly divided into […] (n = 6/group): model control group, positive control group (CTX, 20 mg/kg), R1 (25 mg/kg), IVa (25 mg/kg), and E (5 mg/kg) administration groups. […] Normal and model mice were administered normal saline. Drugs were intraperitoneally injected into the mice for 15 consecutive days. Tumour volumes were measured every 2 days, and tumour growth curves were plotted. At the end of the experiment, the mice were sacrificed, and the tumour weight and tumour growth inhibition rates were calculated.

erythrocytes = assay: Haemolysis test; format: cell-based, Sprague Dawley rats; conditions: all concentrations up to 100 μg/mL
Protocol: (§2) To evaluate the haemocompatibility of Ro, the haemolysis test was performed as previously described. Arterial blood was obtained from healthy Sprague Dawley rats. Then erythrocytes were separated from the plasma and lymphocytes by centrifugation (3000 rpm, 5 min) at 4 °C, washed three times with normal saline, and suspended in normal physiological saline at a haematocrit of 2%. Erythrocytes were used immediately after isolation. Next, 2.5 mL erythrocyte suspension and 2.5 mL medicated saline solution were added to a 10 mL centrifuge tube. The final concentrations of Ro were 1, 3, 10, 30, and 100 μg/mL. The negative and positive controls were normal physiological saline and 0.2% Triton X-100, respectively. The samples were incubated for a specific time period at 37 °C for 60 min. Next, the tube was centrifuged at 3000 rpm for 5 min. Finally, the optical density (OD) was obtained at a wavelength of 545 nm. Three parallel samples were laid in each group. The mean value of the three samples was obtained as the group OD value. The HR was expressed as the percentage and calculated according to the equation:HR = (ODt − ODn)/(ODp − ODn) × 100%,(1) where ODt indicates the OD value of the tested group, and ODn and ODp are the OD values of the negative and positive control groups, respectively. A haemolysis rate less than 5% is regarded as a nontoxic effect level.

Haemolysis test = format: cell-based, Sprague Dawley rats; conditions: Sprague-Dawley, rat, isolated erythrocytes (2% haematocrit suspension), 37 °C, 60 min, read-out: Haemolysis Rate (%)
Protocol: as §2

[2] = tested on: human umbilical vein endothelial cells (HUVECs); assay: Tube formation assay on Matrigel; format: cell-based
Protocol: The tube formation assay was performed as previously described with some modifications. Matrigel (BD Biosciences, San Jose, CA, USA) was thawed overnight at 4 °C. Next, 50 μL Matrigel was coated on each well of the pre-chilled 96-well plates and then incubated at 37 °C for 1 h. HUVECs (5 × 10^4 cells/well) were seeded on the Matrigel and treated with various concentrations of Ro (0, 1, 3, 10, 30, 100 μg/mL), R1 (0, 5, 10, 20, 30, 40 μg/mL), IVa (0, 1, 3, 10, 30, 100 μg/mL), and E (0, 2, 4, 6, 8, 10 μg/mL). After incubation for 5 h, the formation of HUVEC tubular structures was captured using a microscope (Nikon eclipse Ti; Nikon, Tokyo, Japan). The tube length was quantified using Image-Pro Plus 6.0 software.

B16F10 melanoma cells = assay: MTT cell viability assay; format: cell-based; conditions: 24 h; for IC50: Mus musculus, B16-F10, MTT, read-out: half maximal inhibitory concentration (IC50)
Protocol: In this study, Ro was dissolved in dimethyl sulfoxide (DMSO) and diluted in DMEM and then filtered using a 0.22 μm membrane. The final concentration of DMSO in cell culture medium was 0.1%, and 0.1% DMSO-treated cells were used as controls. The effect of Ro on B16F10 cell growth in vitro was performed using the MTT assay. Briefly, exponentially growing B16F10 (1 × 10^4 cells/well) cells were seeded onto 96-well plates and incubated for 24 h in complete medium. After 24 h incubation, the cells were treated with various concentrations of Ro (0, 1, 3, 10, 30, 100 μg/mL) for 24 h, and MTT (0.5%, 20 μL) was then added to each well and incubated for an additional 4 h at 37 °C. The formazan crystals were dissolved in DMSO (150 μL), and the absorbance at 490 nm was measured using a microplate reader (BioTek Epoch; BioTek, Winooski, VT, USA)
The metabolites (standard substance) of Ro were dissolved in the same manner as Ro. Briefly, IVa, R1, and E were dissolved in dimethyl sulfoxide (DMSO), diluted in DMEM, and then filtered using a 0.22 μm membrane. The final concentration of DMSO in cell culture medium was 0.1%, and 0.1% DMSO-treated cells were used as controls. The effects of IVa, R1, and E on B16F10 cell growth were evaluated using the MTT assay as previously described. The cells were treated with various concentrations of IVa (0, 1, 3, 10, 30, 100 μg/mL), R1 (0, 5, 10, 20, 30, 40 μg/mL), and E (0, 2, 4, 6 μg/mL) for 24 h. After incubation, MTT (0.5%, 20 μL) was added and incubated for 4 h at 37 °C. Then the supernatants were carefully removed, and 150 μL DMSO was added to each well. After 10 min of incubation and vibration, the absorbance was read at a wavelength of 490 nm. IC50 values were calculated using Probit Analysis with SPSS 22.0 (SPSS Inc., Chicago, IL, USA).

[3] = HPLC-MS determination of Ro metabolites in plasma of tumour-bearing mice; format: in vivo, C57BL/6J mice; conditions: plasma after 15 days Ro 25 mg/kg intraperitoneal; for detection in plasma of Ro-treated tumour-bearing mice: HPLC-MS
Protocol: B16F10 cells were cultured in DMEM containing 10% FBS. […] Normal and model mice were administered normal saline. […] The tumour inhibition rate was calculated.
Identification of the metabolites of Ro was done using the same HPLC Trap MS system as previously described. Briefly, an aliquot of 60 μL plasma samples was removed from the −80 °C storage and thawed under ambient temperature and mixed vigorously with 300 μL cold methanol. The supernatant was placed in a centrifuge tube (1500 μL) after 10 min of centrifugation at 10,000 rpm. The precipitate was washed three times using 100 μL cold methanol. All of the supernatants were combined and dried under nitrogen flow at ambient temperature. The residue was dissolved using 80 μL methanol (3 min of vortexing), and the solution was diluted in 240 μL pure water. The mixture was centrifuged at 10,000 rpm for 10 min. All of the supernatant was loaded onto a flash column (25 × 2 mm id, Chromolith; Merck, Darmstadt, Germany). This flash column was connected to an analytical column (50 × 2 mm id, Chromolith; Merck) for HPLC-MS analysis. The separation was conducted using a gradient mobile phase consisting of water (A, containing 0.01% ammonium hydroxide) and acetonitrile (B). The program of the mobile phase was as follows: 10% B for the first 5 min; then a linear gradient of 10–15% B for 5–7 min, 15–40% B for 7–40 min, and 40–70% B for 40–45 min; this composition was maintained for 45–60 min and then returned to the initial condition for 5 min. The flow rate was 0.2 mL/min. The method for the Trap MS detection was the same as previously described.

[4] = 5 h incubation, IVa 1–100, R1 5–40, E 2–10 μg/mL
[5] = after 15 days intraperitoneal, CTX 20 mg/kg, Ro 25 mg/kg

For `CC1(C)CC[C@]2(C(=O)O[C@@H]3O[C@H](CO)[C@@H](O)[C@H](O)[C@H]3O)CC[C@]3(C)C(=CC[C@@H]4[C@@]5(C)CC[C@H](O[C@@H]6O[C@H](C(=O)O)[C@@H](O)[C@H](O)[C@H]6O[C@@H]6O[C@H](CO)[C@@H](O)[C@H](O)[C@H]6O)C(C)(C)[C@@H]5CC[C@]43C)[C@@H]2C1` [Ro, ginsenoside Ro], the “Organ Indices Spleen” value ([1]; mouse, in vivo) was 3.54 ± 1.03 ×100, mg/g, the “Organ Indices Thymus” value ([1]; mouse, in vivo) was 1.67 ± 0.25 ×100, mg/g and the “Weight (g) After” value ([1]; mouse, in vivo) was 24.73 ± 1.43 g. For the same compound, the “Weight (g) Before” value ([1]; mouse, in vivo) was 22.91 ± 1.12 g, the tumour inhibition rate (B16F10 melanoma tumour; 25 mg/kg intraperitoneal) was 75.7% and the “haemolysis ratio (HR%)” value (erythrocytes) was “less than 5%”. For the same compound, the hemolysis at 60 min, 1 μg/mL (Haemolysis test; 1 μg/mL) was 0.15 ± 0.13%, the hemolysis at 60 min, 3 μg/mL (Haemolysis test; 3 μg/mL) was 0.31 ± 0.13% and the hemolysis at 60 min, 10 μg/mL (Haemolysis test; 10 μg/mL) was 0.23 ± 0.23%. The hemolysis at 60 min, 30 μg/mL (Haemolysis test; 30 μg/mL) was 0.15 ± 0.13%, the hemolysis at 60 min, 100 μg/mL (Haemolysis test; 100 μg/mL) was 0.31 ± 0.35% and the HUVEC tube formation ([2]; 100 μg/mL, 5 h) was “stimulated tube formation”. For the same compound, the HUVEC tube formation ([2]; 1–30 μg/mL, 5 h) was “no effects” and the “effect on B16F10 cell growth in vitro” value (B16F10 melanoma cells; 0, 1, 3, 10, 30, 100 μg/mL) was “little effect”.

In the case of `CC1(C)CC[C@]2(C(=O)O[C@@H]3O[C@H](CO)[C@@H](O)[C@H](O)[C@H]3O)CC[C@]3(C)C(=CC[C@@H]4[C@@]5(C)CC[C@H](O[C@@H]6O[C@H](C(=O)O)[C@@H](O)[C@H](O)[C@H]6O)C(C)(C)[C@@H]5CC[C@]43C)[C@@H]2C1` [IVa, chikusetsusaponin IVa], the tumour inhibition rate (B16F10 melanoma tumour; 25 mg/kg intraperitoneal) is reported as 64.7%, the mean tumour weight (B16F10 melanoma tumour; 25 mg/kg intraperitoneal) is reported as 0.53 g and the “tumour growth (tumour volume)” value (B16F10 melanoma tumour) is reported as “significantly suppressed tumour growth”. For the same compound, the HUVEC tube formation [2, 4] was “markedly inhibited”, the viability (B16F10 melanoma cells; 100 µg/mL) was “slightly decreased” and the cytotoxic effects (B16F10 melanoma cells; 1–30 µg/mL) was “no cytotoxic effects”.

With Glycosyl oleanolate the “detection in plasma of Ro-treated tumour-bearing mice” value (“detection in plasma” for short) [3] was “not detected”.

In the case of `CC1(C)CC[C@]2(C(=O)O)CC[C@]3(C)C(=CC[C@@H]4[C@@]5(C)CC[C@H](O[C@@H]6O[C@H](C(=O)O)[C@@H](O)[C@H](O)[C@H]6O)C(C)(C)[C@@H]5CC[C@]43C)[C@@H]2C1` [E, calenduloside E], the tumour inhibition rate (B16F10 melanoma tumour; 5 mg/kg intraperitoneal) is reported as 85.4%, the mean tumour weight (B16F10 melanoma tumour; 5 mg/kg intraperitoneal) is reported as 0.22 g and the “tumour growth (tumour volume)” value (B16F10 melanoma tumour) is reported as “significantly suppressed tumour growth”. The HUVEC tube formation [2, 4] was “markedly inhibited” and the IC50 (B16F10 melanoma cells) was 2.58 mg/L (≈ 4.08 µM).

In the case of `CC1(C)CC[C@]2(C(=O)O)CC[C@]3(C)C(=CC[C@@H]4[C@@]5(C)CC[C@H](O)C(C)(C)[C@@H]5CC[C@]43C)[C@@H]2C1` [OA, oleanolic acid, reference compound], the “detection in plasma” value [3] is reported as “not detected”.

With `CC1(C)CC[C@]2(C(=O)O)CC[C@]3(C)C(=CC[C@@H]4[C@@]5(C)CC[C@H](O[C@@H]6O[C@H](C(=O)O)[C@@H](O)[C@H](O)[C@H]6O[C@@H]6O[C@H](CO)[C@@H](O)[C@H](O)[C@H]6O)C(C)(C)[C@@H]5CC[C@]43C)[C@@H]2C1` [R1, zingibroside R1] the tumour inhibition rate (B16F10 melanoma tumour; 25 mg/kg intraperitoneal) was 46.6%, the mean tumour weight (B16F10 melanoma tumour; 25 mg/kg intraperitoneal) was 0.80 g and the “tumour growth (tumour volume)” value (B16F10 melanoma tumour) was “significantly suppressed tumour growth”. For the same compound, the HUVEC tube formation [2, 4] was “markedly inhibited”, the IC50 (B16F10 melanoma cells) was 24.5 mg/L (≈ 30.8 µM) and the “plasma signal intensity of R1 relative to E” value [3] was roughly 100 fold. The “plasma signal intensity of R1 relative to IVa” value [3] was roughly 10 fold, the “plasma signal intensity of R1 relative to Ro” value [3] was “approximately two-fold” and the “detection in plasma” value [3] was “most abundant metabolite in the plasma”.

For `O=P1(N(CCCl)CCCl)NCCCO1` (centres unmarked) [CTX, cyclophosphamide, reference compound], the “Organ Indices Spleen” value [1, 5] was 2.98 ± 0.86 ×100, mg/g, the “Organ Indices Thymus” value [1, 5] was 0.56 ± 0.09 ×100, mg/g and the “Weight (g) After” value ([1]; body weight after 15 days intraperitoneal, CTX 20 mg/kg, Ro 25 mg/kg) was 22.27 ± 1.02 g. For the same compound, the “Weight (g) Before” value ([1]; body weight before treatment, CTX 20 mg/kg, Ro 25 mg/kg) was 22.29 ± 0.85 g and the “tumour growth (tumour volume)” value (B16F10 melanoma tumour) was “significantly suppressed tumour growth”.
